Data published in US7410963B2, “Benzo-1,4-diazepin-2-one derivatives as phosphodiesterase PDE2 inhibitors, preparation and therapeutic use thereof” (VIA Pharmaceuticals, Inc., priority 2003, dated 2008).

Target: T1, PDE2 (Bos taurus, UniProt P14099)
T1 sequence (P14099 1-921): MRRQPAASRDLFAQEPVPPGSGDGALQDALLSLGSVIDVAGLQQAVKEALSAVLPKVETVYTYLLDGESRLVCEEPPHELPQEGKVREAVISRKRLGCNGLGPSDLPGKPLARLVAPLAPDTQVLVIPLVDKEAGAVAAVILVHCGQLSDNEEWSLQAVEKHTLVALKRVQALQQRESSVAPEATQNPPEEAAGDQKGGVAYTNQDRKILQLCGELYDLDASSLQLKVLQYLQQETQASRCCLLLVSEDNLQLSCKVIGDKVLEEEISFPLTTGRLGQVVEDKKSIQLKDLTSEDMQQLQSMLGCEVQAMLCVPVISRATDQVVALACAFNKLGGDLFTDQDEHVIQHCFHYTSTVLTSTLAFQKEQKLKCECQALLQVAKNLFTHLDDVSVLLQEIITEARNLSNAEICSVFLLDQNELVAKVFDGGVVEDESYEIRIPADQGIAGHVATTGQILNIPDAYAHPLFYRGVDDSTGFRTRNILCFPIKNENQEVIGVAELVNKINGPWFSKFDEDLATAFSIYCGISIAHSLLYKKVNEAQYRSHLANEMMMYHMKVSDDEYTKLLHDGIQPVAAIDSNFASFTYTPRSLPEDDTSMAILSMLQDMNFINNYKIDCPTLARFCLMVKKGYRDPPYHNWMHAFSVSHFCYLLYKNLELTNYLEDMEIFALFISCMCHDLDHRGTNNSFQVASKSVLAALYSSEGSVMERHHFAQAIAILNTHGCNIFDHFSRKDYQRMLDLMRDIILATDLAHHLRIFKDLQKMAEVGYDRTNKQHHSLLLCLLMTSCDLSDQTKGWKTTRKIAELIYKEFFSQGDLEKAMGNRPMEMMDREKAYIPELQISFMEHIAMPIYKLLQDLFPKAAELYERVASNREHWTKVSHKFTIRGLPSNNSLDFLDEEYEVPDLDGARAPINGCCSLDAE
Test: Radioenzymatic phosphodiesterase assay: PDE2 inhibition
Format: biochemical, bovine
Details: Table 1; 10 μM test compound
Method: Nucleoside radioactivity was determined by liquid scintillation.

SMILES	PDE2 percentage of inhibition at 10 μM [%]
COc1ccc(-c2ccc3c(c2)C(c2cccc(C(N)=O)c2)=NCC(=O)N3C)c(OC)c1 [Example 33, 3-[7-(2,4-Dimethoxy-phenyl)-1-methyl-2-oxo-2,3-dihydro-1H-benzo[e][1.4]diazepin-5-yl]-benzamide]	99

Same assay, conditions: Table 1; 10 μM test compound; read-out: PDE2 percentage of inhibition at 10 μM

SMILES	inhibition at 10 µM [%]
COc1ccc(-c2cc3c(cc2OC)N(C)C(=O)CN=C3c2cccc(C#N)c2)cc1 [Example 4, 3-[8-Methoxy-7-(4-methoxy-phenyl)-1-methyl-2-oxo-2,3-dihydro-1H-benzo[e][1,4]diazepin-5-yl]-benzonitrile]	97
COc1cc2c(cc1-c1ccccc1Cl)C(c1cccc(C#N)c1)=NCC(=O)N2C [Example 5, 3-[7-(2-Chloro-phenyl)-8-methoxy-1-methyl-2-oxo-2,3-dihydro-1H-benzo[e][1,4]diazepin-5-yl]-benzonitrile]	98
COc1cc2c(cc1-c1ccco1)C(c1cccc(C#N)c1)=NCC(=O)N2C [Example 8, 3-(7-Furan-2-yl-8-methoxy-1-methyl-2-oxo-2,3-dihydro-1H-benzo[e][1,4]diazepin-5-yl)-benzonitrile]	47
CN1C(=O)CN=C(c2cccc(C=O)c2)c2cc(-c3ccccc3)ccc21 [Example 9, 3-(1-Methyl-2-oxo-7-phenyl-2,3-dihydro-1H-benzo[e][1,4]diazepin-5-yl)-benzaldehyde]	84
COc1ccccc1-c1cc2c(cc1OC)NC(=O)CN=C2c1cccc(C#N)c1 [Example 10, 3-[8-Methoxy-7-(2-methoxy-phenyl)-2-oxo-2,3-dihydro-1H-benzo[e][1,4]diazepin-5-yl]-benzonitrile]	94
COc1ccccc1-c1ccc2c(c1)C(c1cccc(C#N)c1)=NCC(=O)N2C [Example 12, 3-[7-(2-Methoxy-phenyl)-1-methyl-2-oxo-2,3-dihydro-1H-benzo[e][1,4]diazepin-5-yl]-benzonitrile]	40
COc1cccc(-c2ccc3c(c2)C(c2cccc(C#N)c2)=NCC(=O)N3C)c1 [Example 13, 3-[7-(3-Methoxy-phenyl)-1-methyl-2-oxo-2,3-dihydro-1H-benzo[e][1,4]diazepin-5-yl]-benzonitrile]	91
COc1ccc(-c2ccc3c(c2)C(c2cccc(C#N)c2)=NCC(=O)N3C)cc1 [Example 14, 3-[7-(4-Methoxy-phenyl)-1-methyl-2-oxo-2,3-dihydro-1H-benzo[e][1,4]diazepin-5-yl]-benzonitrile]	92
COc1cccc(OC)c1-c1ccc2c(c1)C(c1cccc(C#N)c1)=NCC(=O)N2C [Example 16, 3-[7-(2,6-Dimethoxy-phenyl)-1-methyl-2-oxo-2,3-dihydro-1H-benzo[e][1,4]diazepin-5-yl]-benzonitrile]	100
CCOc1cc2c(cc1-c1ccccc1)C(c1ccccc1)=NCC(=O)N2CC [Example 18, 8-Ethoxy-1-ethyl-5,7-diphenyl-1,3-dihydro-benzo[e][1,4]diazepin-2-one]	27
COc1cc2c(cc1-c1ccc(F)cc1)C(c1cccc(C(N)=O)c1)=NCC(=O)N2C [Example 20, 3-[7-(4-Fluoro-phenyl)-8-methoxy-1-methyl-2-oxo-2,3-dihydro-1H-benzo[e][1,4]diazepin-5-yl]-benzamide]	99
COc1cc2c(cc1-c1cccc(Cl)c1)C(c1cccc(C(N)=O)c1)=NCC(=O)N2C [Example 24, 3-[7-(3-Chloro-phenyl)-8-methoxy-1-methyl-2-oxo-2,3-dihydro-1H-benzo[e][1,4]diazepin-5-yl]-benzamide]	98
COc1cc2c(cc1-c1ccc(Cl)cc1)C(c1cccc(C(N)=O)c1)=NCC(=O)N2C [Example 25, 3-[7-(4-Chloro-phenyl)-8-methoxy-1-methyl-2-oxo-2,3-dihydro-1H-benzo[e][1,4]diazepin-5-yl]-benzamide]	97
COc1cc2c(cc1-c1ccco1)C(c1cccc(C(N)=O)c1)=NCC(=O)N2C [Example 26, 3-(7-Furan-2-yl-8-methoxy-1-methyl-2-oxo-2,3-dihydro-1H-benzo[e][1,4]diazepin-5-yl)-benzamide]	71
COc1ccccc1-c1ccc2c(c1)C(c1cccc(C(N)=O)c1)=NCC(=O)N2C [Example 28, 3-[7-(2-methoxy-phenyl)-1-methyl-2-oxo-2,3-dihydro-1H-benzo[e][1,4]diazepin-5-yl]-benzamide]	97
COc1cccc(-c2ccc3c(c2)C(c2cccc(C(N)=O)c2)=NCC(=O)N3C)c1 [Example 29, 3-[7-(3-methoxy-phenyl)-1-methyl-2-oxo-2,3-dihydro-1H-benzo[e][1,4]diazepin-5-yl]-benzamide]	95
COc1ccc(-c2ccc3c(c2)C(c2cccc(C(N)=O)c2)=NCC(=O)N3C)cc1 [Example 30, 3-[7-(4-methoxy-phenyl)-1-methyl-2-oxo-2,3-dihydro-1H-benzo[e][1,4]diazepin-5-yl]-benzamide]	95

Same assay, conditions: read-out: PDE2 percentage of inhibition at 10 μM

SMILES	inhibition at 10 µM [%]
COc1cc2c(cc1-c1ccccc1)C(c1cccc(C#N)c1)=NCC(=O)N2C [Example 1, 3-(8-Methoxy-1-methyl-2-oxo-7-phenyl-2,3-dihydro-1H-benzo[e][1,4]diazepin-5-yl)-benzonitrile]	83
COc1cc2c(cc1-c1ccc(F)cc1)C(c1cccc(C#N)c1)=NCC(=O)N2C [Example 2, 3-[7-(4-Fluoro-phenyl)-8-methoxy-1-methyl-2-oxo-2,3-dihydro-1H-benzo[e][1,4]diazepin-5-yl]-benzonitrile]	97
COc1ccccc1-c1cc2c(cc1OC)N(C)C(=O)CN=C2c1cccc(C#N)c1 [Example 3, 3-[8-Methoxy-7-(2-methoxy-phenyl)-1-methyl-2-oxo-2,3-dihydro-1H-benzo[e][1,4]diazepin-5-yl]-benzonitrile]	100
COc1cc2c(cc1-c1cccc(Cl)c1)C(c1cccc(C#N)c1)=NCC(=O)N2C [Example 6, 3-[7-(3-Chloro-phenyl)-8-methoxy-1-methyl-2-oxo-2,3-dihydro-1H-benzo[e][1,4]diazepin-5-yl]-benzonitrile]	96
COc1cc2c(cc1-c1ccc(Cl)cc1)C(c1cccc(C#N)c1)=NCC(=O)N2C [Example 7, 3-[7-(4-Chloro-phenyl)-8-methoxy-1-methyl-2-oxo-2,3-dihydro-1H-benzo[e][1,4]diazepin-5-yl]-benzonitrile]	91
CN1C(=O)CN=C(c2cccc(C#N)c2)c2cc(-c3ccccc3)ccc21 [Example 11, 3-(1-Methyl-2-oxo-7-phenyl-2,3-dihydro-1H-benzo[e][1,4]diazepin-5-yl)-benzonitrile]	79
COc1ccc(OC)c(-c2ccc3c(c2)C(c2cccc(C#N)c2)=NCC(=O)N3C)c1 [Example 15, 3-[7-(2,5-Dimethoxy-phenyl)-1-methyl-2-oxo-2,3-dihydro-1H-benzo[e][1,4]diazepin-5-yl]-benzonitrile]	98
COc1ccc(-c2ccc3c(c2)C(c2cccc(C#N)c2)=NCC(=O)N3C)c(OC)c1 [Example 17, 3-[7-(2,4-Dimethoxy-phenyl)-1-methyl-2-oxo-2,3-dihydro-1H-benzo[e][1,4]diazepin-5-yl]-benzonitrile]	98
CN1C(=O)CN=C(c2cccc(C(N)=O)c2)c2cc(-c3ccccc3)ccc21 [Example 27, 3-(1-methyl-2-oxo-7-phenyl-2,3-dihydro-1H-benzo[e][1,4]diazepin-5-yl)-benzamide]	96
